Values of other authors in PubChem BioAssay AID1259409 (Chemical Carcinogenesis Research Information System (CCRIS), 2018).

Test system: rodent chemically induced tumor inhibition, incidence and multiplicity
Assay: CCRIS tumor inhibitor studies

In the case of `CCC(C)(C)C(=O)O[C@H]1C[C@@H](C)C=C2C=C[C@H](C)[C@H](CC[C@@H]3C[C@@H](O)CC(=O)O3)[C@H]21`, the “tumour outcome (control, treated, inhibition, significance)” value (Carcinogen: 1,2-DIMETHYLHYDRAZINE, 540-73-8, Dose [Inhibitor]: 0, 0.02% IN DIET FOR 25 WK (STUDY DURATION: 25 WK), Route [Inhibitor]: ORAL, Species: MOUSE, Strain/Sex: ICR/FEMALE, Target Tissue: Type of Lesion: COLON: TUMOR, Dose [Carcinogen]: 10 MG/KG BW 1/WK FOR 15 WK, Promoter: NONE USED) is given as 16/30 (53%), 12/30 (40%), 25%, not significant and the “tumour outcome (control, treated, inhibition, significance)” value (Carcinogen: 1,2-DIMETHYLHYDRAZINE, 540-73-8, Dose [Inhibitor]: 0, 0.1% IN DIET FOR 25 WK (STUDY DURATION: 25 WK), Route [Inhibitor]: ORAL, Species: MOUSE, Strain/Sex: ICR/FEMALE, Target Tissue: Type of Lesion: COLON: TUMOR, Dose [Carcinogen]: 10 MG/KG BW 1/WK FOR 15 WK, Promoter: NONE USED) is given as 16/30 (53%), 11/30 (37%), 30%, not significant.
In the case of `CCS(=O)(=O)Nc1ncc(C(F)(F)F)cc1NC(=O)C1CCCCC1`, the “tumour outcome (control, treated, inhibition, significance)” value (Carcinogen: N-NITROSOBIS(2-OXOPROPYL)AMINE [60599-38-4], Dose [Inhibitor]: 200 PPM FOR 16 WK BEGINNING 1 WK POST CHOLECYSTODUOODENOSTOMY AND LIGATION OF DISTAL END OF COMMON DUCT (STUDY DURATION:, Route [Inhibitor]: ORAL, Species: HAMSTER, Strain/Sex: SYRIAN/FEMALE, Target Tissue: Type of Lesion: EXTRAHEPATIC BILE DUCT: ADENOCARCINOMA, Dose [Carcinogen]: 10 MG/KG BW 1X/WK FOR 10 WK BEGINNING 1 WK POST CHOLECYSTODUODENOSTOMY AND LIGATION OF DISTAL END OF COMMON DUCT (STUDY, Promoter: NONE) is listed as 14/26 (54%), 2/15 (13%), 76%, p<0.05, the “tumour outcome (control, treated, inhibition, significance)” value (Carcinogen: N-NITROSOBIS(2-OXOPROPYL)AMINE [60599-38-4], Dose [Inhibitor]: 200 PPM FOR 16 WK BEGINNING 1 WK POST CHOLECYSTODUOODENOSTOMY AND LIGATION OF DISTAL END OF COMMON DUCT (STUDY DURATION:, Route [Inhibitor]: ORAL, Species: HAMSTER, Strain/Sex: SYRIAN/FEMALE, Target Tissue: Type of Lesion: GALL BLADDER: ADENOCARCINOMA, Dose [Carcinogen]: 10 MG/KG BW 1X/WK FOR 10 WK BEGINNING 1 WK POST CHOLECYSTODUOODENOSTOMY AND LIGATION OF DISTAL END OF COMMON DUCT (STUDY, Promoter: NONE) is listed as 18/26 (69%), 3/15 (20%), 71%, p<0.01 and the “tumour outcome (control, treated, inhibition, significance)” value (Carcinogen: N-NITROSOBIS(2-OXOPROPYL)AMINE [60599-38-4], Dose [Inhibitor]: 200 PPM FOR 16 WK BEGINNING 1 WK POST CHOLECYSTODUOODENOSTOMY AND LIGATION OF DISTAL END OF COMMON DUCT (STUDY DURATION:, Route [Inhibitor]: ORAL, Species: HAMSTER, Strain/Sex: SYRIAN/FEMALE, Target Tissue: Type of Lesion: INTRAHEPATIC BILE DUCT: ADENOCARCINOMA, Dose [Carcinogen]: 10 MG/KG BW 1X/WK FOR 10 WK BEGINNING 1 WK POST CHOLECYSTODUODENOSTOMY AND LIGATION OF DISTAL END OF COMMON DUCT (STUDY, Promoter: NONE) is listed as 14/26 (54%), 3/15 (20%), 63%, p<0.05.
In the case of `CC1=C(/C=C/C(C)=C/C=C/C(C)=C/C(=O)NCCCO)C(C)(C)CCC1`, the “tumour outcome (control, treated, inhibition, significance)” value (Carcinogen: N-BUTYL-N-(4-HYDROXYBUTYL)NITROSAMINE, 3817-11-6, Dose [Inhibitor]: 1.5 MMOL/KG/D IN DIET FOR 108 D STARTING 1 WK POST CARCINOGEN TREATMENT (STUDY DURATION: 171 D), Route [Inhibitor]: ORAL, Species: MOUSE, Strain/Sex: BDF/MALE, Target Tissue: Type of Lesion: URINARY BLADDER: TRANSITIONAL CELL CARCINOMA, Dose [Carcinogen]: 5 MG 2/WK FOR 9 WK, Promoter: NONE USED) is given as 31/55 (56%), 28/54 (51%), 9%, not significant, the “tumour outcome (control, treated, inhibition, significance)” value (Carcinogen: N-NITROSOBIS(2-OXOPROPYL)AMINE, 60599-38-4, Dose [Inhibitor]: 0.25 MMOL/KG OF DIET FOR 357 D STARTING 2 WK AFTER LAST CARCINOGEN DOSE AND INTERRUPTED BY A 1 WK REST PERIOD OF VEHICLE, Route [Inhibitor]: ORAL, Species: HAMSTER, Strain/Sex: SYRIAN/FEMALE, Target Tissue: Type of Lesion: LIVER: HEPATOCELLULAR CARCINOMA, Dose [Carcinogen]: 20 MG/KG INJECTION GIVEN TWICE 1 WK APART, Promoter: NONE USED) is given as 5%, 42%, -740%, not calculated and the “tumour outcome (control, treated, inhibition, significance)” value (Carcinogen: N-NITROSOBIS(2-OXOPROPYL)AMINE, 60599-38-4, Dose [Inhibitor]: 0.25 MMOL/KG OF DIET FOR 357 D STARTING 2 WK AFTER LAST CARCINOGEN DOSE AND INTERRUPTED BY A 1 WK REST PERIOD OF VEHICLE, Route [Inhibitor]: ORAL, Species: HAMSTER, Strain/Sex: SYRIAN/FEMALE, Target Tissue: Type of Lesion: PANCREAS: CARCINOMA, Dose [Carcinogen]: 20 MG/KG INJECTION GIVEN TWICE 1 WK APART, Promoter: NONE USED) is given as 38%, 32%, 16%, not calculated. The “tumour outcome (control, treated, inhibition, significance)” value (Carcinogen: N-NITROSOBIS(2-OXOPROPYL)AMINE, 60599-38-4, Dose [Inhibitor]: 0.25 MMOL/KG OF DIET FOR 357 D STARTING 2 WK AFTER LAST CARCINOGEN DOSE AND INTERRUPTED BY A 1 WK REST PERIOD OF VEHICLE, Route [Inhibitor]: ORAL, Species: HAMSTER, Strain/Sex: SYRIAN/MALE, Target Tissue: Type of Lesion: LIVER: HEPATOCELLULAR CARCINOMA, Dose [Carcinogen]: 20 MG/KG INJECTION GIVEN TWICE 1 WK APART, Promoter: NONE USED) was 7%, 0%, 100%, not calculated, the “tumour outcome (control, treated, inhibition, significance)” value (Carcinogen: N-NITROSOBIS(2-OXOPROPYL)AMINE, 60599-38-4, Dose [Inhibitor]: 0.25 MMOL/KG OF DIET FOR 357 D STARTING 2 WK AFTER LAST CARCINOGEN DOSE AND INTERRUPTED BY A 1 WK REST PERIOD OF VEHICLE, Route [Inhibitor]: ORAL, Species: HAMSTER, Strain/Sex: SYRIAN/MALE, Target Tissue: Type of Lesion: PANCREAS: CARCINOMA, Dose [Carcinogen]: 20 MG/KG INJECTION GIVEN TWICE 1 WK APART, Promoter: NONE USED) was 34%, 27%, 21%, not calculated and the “tumour outcome (control, treated, inhibition, significance)” value (Carcinogen: N-NITROSOBIS(2-OXOPROPYL)AMINE, 60599-38-4, Dose [Inhibitor]: 0.5 MMOL/KG OF DIET FOR 357 D STARTING 2 WK AFTER LAST CARCINOGEN DOSE AND INTERRUPTED BY A 1 WK REST PERIOD OF VEHICLE-, Route [Inhibitor]: ORAL, Species: HAMSTER, Strain/Sex: SYRIAN/FEMALE, Target Tissue: Type of Lesion: LIVER: HEPATOCELLULAR CARCINOMA, Dose [Carcinogen]: 20 MG/KG INJECTION GIVEN TWICE 1 WK APART, Promoter: NONE USED) was 5%, 9%, -80%, not calculated. The “tumour outcome (control, treated, inhibition, significance)” value (Carcinogen: N-NITROSOBIS(2-OXOPROPYL)AMINE, 60599-38-4, Dose [Inhibitor]: 0.5 MMOL/KG OF DIET FOR 357 D STARTING 2 WK AFTER LAST CARCINOGEN DOSE AND INTERRUPTED BY A 1 WK REST PERIOD OF VEHICLE-, Route [Inhibitor]: ORAL, Species: HAMSTER, Strain/Sex: SYRIAN/FEMALE, Target Tissue: Type of Lesion: PANCREAS: CARCINOMA, Dose [Carcinogen]: 20 MG/KG INJECTION GIVEN TWICE 1 WK APART, Promoter: NONE USED) was 38%, 27%, 29%, not calculated, the “tumour outcome (control, treated, inhibition, significance)” value (Carcinogen: N-NITROSOBIS(2-OXOPROPYL)AMINE, 60599-38-4, Dose [Inhibitor]: 0.5 MMOL/KG OF DIET FOR 357 D STARTING 2 WK AFTER LAST CARCINOGEN DOSE AND INTERRUPTED BY A 1 WK REST PERIOD OF VEHICLE-, Route [Inhibitor]: ORAL, Species: HAMSTER, Strain/Sex: SYRIAN/MALE, Target Tissue: Type of Lesion: LIVER: HEPATOCELLULAR CARCINOMA, Dose [Carcinogen]: 20 MG/KG INJECTION GIVEN TWICE 1 WK APART, Promoter: NONE USED) was 7%, 12%, -71%, not calculated and the “tumour outcome (control, treated, inhibition, significance)” value (Carcinogen: N-NITROSOBIS(2-OXOPROPYL)AMINE, 60599-38-4, Dose [Inhibitor]: 0.5 MMOL/KG OF DIET FOR 357 D STARTING 2 WK AFTER LAST CARCINOGEN DOSE AND INTERRUPTED BY A 1 WK REST PERIOD OF VEHICLE-, Route [Inhibitor]: ORAL, Species: HAMSTER, Strain/Sex: SYRIAN/MALE, Target Tissue: Type of Lesion: PANCREAS: CARCINOMA, Dose [Carcinogen]: 20 MG/KG INJECTION GIVEN TWICE 1 WK APART, Promoter: NONE USED) was 34%, 40%, -18%, not calculated.
In the case of `c1ccc2c(c1)Nc1ccccc1[Se]2`, the “tumour outcome (control, treated, inhibition, significance)” value (Carcinogen: BENZO[A]PYRENE, 50-32-8, Dose [Inhibitor]: 0, 3.8 UMOL/G DIET BEGINNING 1 WK PRIOR TO CARCINOGEN TREATMENT AND CONTINUING FOR 1 WK POST CARCINOGEN TREATMENT FOLLOW, Route [Inhibitor]: ORAL, Species: MOUSE, Strain/Sex: CD-1/FEMALE, Target Tissue: Type of Lesion: FORESTOMACH: PAPILLOMA, Dose [Carcinogen]: 1 MG IN 0.2 ML CORN OIL 2/WK FOR 4 WK, Promoter: NONE USED) is listed as 85%, 95%, -12%, not significant.
For `C#C[C@]1(O)CC[C@H]2[C@@H]3CCC4=Cc5oncc5C[C@]4(C)[C@H]3CC[C@@]21C`, the “tumour outcome (control, treated, inhibition, significance)” value (Carcinogen: 7,12-DIMETHYLBENZ[A]ANTHRACENE, 57-97-6, Dose [Inhibitor]: 0, 2 MG 6 D/WK FOR 169 D BEGINNING 5 D POST CARCINOGEN DOSE (STUDY DURATION: 174 D), Route [Inhibitor]: SUBCUTANEOUS, Species: RAT, Strain/Sex: SPRAGUE-DAWLEY/FEMALE, Target Tissue: Type of Lesion: MAMMARY GLAND: MALIGNANT TUMORS, Dose [Carcinogen]: 20 MG IN 1 ML SESAME OIL ONCE, Promoter: NONE USED) is given as 91%, 67%, 26%, p<0.05.
